Type in all cases: in vivo, mouse
For one series, the system named is C57BL/6 wild type mice. Nature of the series: Tissue apoptosis (TUNEL) in irradiated hindlimb muscle and bone marrow. The following applies: morpholino 48 hours before 25 Gy, 24 hours post-radiation. The procedure:
FIG. 17. Therapeutic suppression of CD47 prevents radiation-induced apoptosis in muscle and bone marrow. The presence of apoptosis was detected by the TUNEL method as brown nuclear staining. Non-irradiated control hindlimbs (upper panels) and hindlimbs irradiated for a total of 25 Gy all from age and sex matched C57BL/6 wild type mice were prepared for paraffin-embedded tissue sections 24 hours post-radiation and were examined for the presence of apoptotic nuclei. Mice hindlimbs injected with the CD47 morpholino (bottom panels) 48 hours prior to radiation were also prepared in the same manner 24 hours post-radiation. Apoptosis is inferred by intranuclear staining of muscle and bone marrow cells. Images were acquired using a 20× objective.
Tissue apoptosis: The ApopTag in situ detection kit (Chemicon, Millipore, Mass.) was employed following the manufacturer's recommendations In brief, sections undergo deparaffinization, rehydration and washing, followed by treatment with 20 μg/ml of proteinase K for 15 minutes at room temperature and repeat washing. Endogenous peroxidase activity was quenched with 3% H2O2 in PBS for 5 minutes. The 3′-hydroxy DNA strand breaks were enzymatically labeled with digoxygenin nucleotide via TdT and incubated for 1 hour at 37° C., and the reaction terminated with a stop buffer. […]

Another series has as its system C57BL/6 mice. Description: Laser Doppler hind limb blood flow after NO challenge, 8 weeks post-radiation. The following applies: intramuscular 10 μM 48 hours before 25 Gy, 8 weeks post-injury. The procedure: FIG. 18. Targeting CD47 Protects Composite Tissue From Radiation-Induced Vascular Damage. Age matched male C57BL/6 mice received 25 Gy to both hind limbs. Forty-eight hours prior to irradiation the right hind limb was treated by direct intra-muscular injection with the CD47 morpholino (750 μl at 10 μM concentration). The opposite (control) limb received nothing. Eight weeks post-radiation hind limb blood flow changes to a nitric oxide (NO) challenge (DEA/NO 100 nmol/g body weight via rectal instillation) was assessed via Laser Doppler imaging (FIG. 18A). In other experiments, the opposite (control) limb received injection of either missense oligonucleotide or sterile PBS with similar results (not shown). Laser Doppler was performed under 1.5% isoflurane inhalation anesthesia with animal core temperature held constant at 36.5° C. […]
Laser Doppler analysis: Hind limb flow was measured using laser Doppler imaging (MoorLD1-2λ, Moor Instruments, Devon, England). […] Core temperature was monitored by rectal probe and was further controlled with a heat lamp. […] After equilibration to the experimental set-up baseline, hind limb blood flow was measured. […] Results are expressed as the change percent control from baseline of the ROI.
Laser Doppler Analysis: Hind limb blood flow was measured using laser Doppler imaging as described above. […]

The test system of another series is B16 melanoma tumors. Nature of the series: Histology, TUNEL and CD68 staining of irradiated B16 tumors. The following applies: morpholino 48 hours before 10 Gy, 24 hours post-radiation. On the procedure: FIG. 21. Increased fibrotic response, viable immune reaction, and macrophage infiltration is seen in tumors with suppressed CD47 expression. C57BL/6 mice were injected with 1×10^6 B16 mouse melanoma cells into their hind limbs. Treatment consisted of two groups where the hind limbs were treated with either 150 μl of PBS or 150 μl of CD47 morpholino (10 μM) 48 hours prior to radiation (10 Gy). The control group consisted of just tumor without radiation. 24 hours post-radiation the mice were sacrificed, and their hindlimbs were prepared in paraffin embedded tissue sections for analysis. The top panels represent hind limbs and tumors in each group stained by standard H&E protocol (FIG. 21A). […] Positive (apoptotic) cells are indicated by brown nuclear staining (FIG. 21B). […] Dark staining within the tumor indicates macrophage infiltration. Images were acquired using either a 4× or 10× objective.
Immunohistochemical Evaluation: Staining for the macrophage marker CD68 was done as previously described (Manso et al., Cancer Res 68:7090-7099, 2008) utilizing a rat anti-mouse CD68 antibody (AbD Serotec, Raleigh, N.C.). H&E staining of tissue hind limbs was prepared by American HistoLabs, Gaithersburg, Md.
Tissue Apoptosis: The ApopTag in situ detection kit (Chemicon, Millipore, Mass.) was used as described in Example 1. Additionally, animals were injected with 1×10^6 B16 melanoma cells and treated with either CD47 morpholino or sterile PBS as previously described. Mice were sacrificed 24 hours post irradiation (10 Gy), and hind limbs were embedded in paraffin blocks. Tissue sections incorporating the entire hind limb were examined for apoptosis employing 3′-hydroxy DNA strand breaks enzymatically labeled with digoxygenin nucleotide via TdT. Positive and negative control slides provided with the kit are used in each assay to ensure consistency.

On to “CGTCACAGGCAGGACCCACTGCCCA (all phosphorodiamidate morpholino (PMO)) [CD47 morpholino, CD47 targeting morpholino oligonucleotide]”, for which, in the series with C57BL/6 wild type mice, the “apoptosis (TUNEL) in bone marrow” value was “tissue protection extended to the bone marrow compartment” and the “apoptosis (TUNEL) in skeletal muscle” value is recorded as “minimum cell death (apoptosis)”. Further, the “vascular perfusion in response to DEA/NO challenge (laser Doppler)” value with C57BL/6 mice was “enhanced vascular perfusion”. For the same sequence, in the series with B16 melanoma tumors, the “H&E of irradiated tumors (fibrosis, necrosis)” value was “greater fibrosis and necrotic response”; the “apoptotic cells associated with the tumor (TUNEL)” value is listed as “minimal numbers of apoptotic cells”; the “macrophage marker CD68 staining of tumors” value is “positive staining in the periphery”.

These data come from patent US8951527B2, “Radioprotectants targeting thrombospondin-1 and CD47” (The United States of America, as represented by the …, priority 2008, dated 2015).
